Measurements published in patent US20060009805A1, “Neural stimulation device employing renewable chemical stimulation” (priority 2004, published 2006).

Assays:
[1] = cited from earlier work
[2] = test system: rabbit retinal ganglion cells; assay: Single cell recordings from axons of retinal ganglion cells stimulated by focal ejection of K+ (KCl) from a micropipette; assay type: cell-based
Protocol: Single cell recordings were made from the axons of rabbit retinal ganglion cells in vitro. Data was recorded and analyzed using Spike2 (Cambridge Electronic Design). The ganglion cells were stimulated over the optical receptive field with a multibarrel micropipette (7-barrel, FHC, Inc.) which contained various concentrations of KCl (0-30 mM in an osmotically balanced NaCl solution (˜300 mOsm). The micropipette solutions were ejected by using a mulitchannel pressure ejector (PM8000, MDI Systems). All solutions contained Azure B (0.5 mg/ml) to enable visualization of the solution being ejected. Pulse durations of 20-100 msecs were used.
Response is shown for a cell stimulated with a 20 msec pulse of 10 mM K^+, pressure of 40 p.s.i. and a volume of approximately 100 pL. […] A modest increase (10 mM) in K^+ concentration increases the spike count from 35 to 80 spikes. Further increases in concentration to 15 mM and 30 mM increases the spike rate to 240 and 272 spikes, respectively. […] The histograms are summed responses from 10 trials as indicated by the raster plot.
Data was collected from 5 cells and the total spike count was obtained from the PSTH. The spontaneous activity (control record) was subtracted, divided by the number of repetitions and the median is plotted. The error bars shown are the standard deviations normalized by the median.
The large secondary lobe in the potassium response may be due to the fluid flow pattern that may have stimulated adjacent cells. Overall receptive field size is […] for a light evoked response.

For O=C(O)[C@H](O)[C@@H](O)[C@H](O)[C@H](O)CO [Gluconic acid, gluconic acid], the pKa [1] is listed as ~3.6.

With [K+] [K^+] the overall receptive field size, potassium evoked response ([2]; 30 mM [K+]) was 400 µm, the receptive field size, primary lobe, potassium evoked response ([2]; 30 mM [K+]) was 100 µm and the “increase in background K+ concentration sufficient to excite the firing of an action potential by retinal ganglion cells” value ([2]; rabbit retina, in vitro) was ~10 mM. The “spike count (PSTH, summed responses from 10 trials)” value ([2]; representative cell, 10 mM K+, count without K+ increase 35) was 80 spikes, the “spike count (PSTH, summed responses from 10 trials; given as spike rate)” value ([2]; representative cell, 15 mM K+) was 240 spikes and the “spike count (PSTH, summed responses from 10 trials; given as spike rate)” value ([2]; representative cell, 30 mM K+) was 272 spikes.
